One assay concerns the target human cathepsin K (UniProt P43236). Kind of assay: Cathepsin K Assay (hrbCat K). To be noted: Z-Leu-Arg-AMC substrate, pH 5.5, 15 min preincubation; read-out: hrbCat K (IP (nM)). It is filed as biochemical. The method in brief: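 Human cathepsin K (0.4 nM) was preincubated 15 min at room temperature with compound in 50 mM MES pH 5.5, 2.5 mM EDTA, 2.5 mM DTT and 10% DMSO. Inhibition was fitted to a dose-response model.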

Another assay deals with T1, human cathepsin F (Homo sapiens, UniProt Q9UBX1).
T1 sequence (Q9UBX1 271-484): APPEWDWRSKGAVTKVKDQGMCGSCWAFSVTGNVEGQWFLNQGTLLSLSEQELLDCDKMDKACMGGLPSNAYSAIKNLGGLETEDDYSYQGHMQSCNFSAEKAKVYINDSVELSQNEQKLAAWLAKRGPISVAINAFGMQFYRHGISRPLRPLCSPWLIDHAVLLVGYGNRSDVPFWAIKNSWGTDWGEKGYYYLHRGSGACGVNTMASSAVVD
Kind of assay: Cathepsin F assay (hCat F). The assay is classed as biochemical. To be noted: Z-Phe-Arg-AMC substrate, pH 5.5, 15 min preincubation; read-out: hCat F (IP (nM)). The method in brief: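 Enzyme (10 nM) was preincubated 15 min at room temperature with compounds (1/3 DMSO dilution series, 500–0.025 μM) in 50 mM MES pH 5.5, 2.5 mM EDTA, 2.5 mM DTT, 10% DMSO. Z-Phe-Arg-AMC (8 μM) was added and AMC fluorescence (Ex 360/Em 460 nm) followed for 20 min. % inhibition was fitted to dose-response curves.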

Here are results for nine molecules from patent US9573913B2, “Cathepsin cysteine protease inhibitors” (Merck Sharp & Dohme Corp., priority 2013, dated 2017).

Regarding `N#CC1(NC(=O)[C@@H]2CCCC[C@H]2c2nc(NCC(F)(F)F)sc2-c2ccc(N3CCS(=O)(=O)CC3)cc2)CC1` [Example 156, (1R,2R)-N-(1-cyanocyclopropyl)-2-(5-(4-(1,1-dioxidothiomorpho-lino)phenyl)-2-((2,2,2-trifluoroethyl)amino)thiazol-4-yl)cyclohexane-carboxamide], the IC50 was 8.8 nM on human cathepsin K and not below 10000 nM on human cathepsin F.
Take `CC(C)(C)Nc1nc([C@@H]2CCCC[C@H]2C(=O)NC2(C#N)CC2)c(-c2ccc(N3CCS(=O)(=O)CC3)cc2)s1` [Example 157, (1R,2R)-2-(2-(tert-butylamino)-5-(4-(1,1-dioxidothiomorpho-lino)phenyl)thiazol-4-yl)-N-(1-cyanocyclopropyl) cyclohexanecarbox-amide]: the IC50 on human cathepsin K is 19.4 nM; on human cathepsin F, not below 10000 nM.
For `N#CC1(NC(=O)[C@@H]2CCCC[C@H]2c2nc(C3CCS(=O)(=O)CC3)sc2-c2ccc(N3CCS(=O)(=O)CC3)cc2)CC1` [Example 158, (1R,2R)-N-(1-cyanocyclopropyl)-2-(2-(1,1-dioxidotetrahydro-2H-thiopyran-4-yl)-5-(4-(1,1-dioxidothiomorpho-lino)phenyl)thiazol-4-yl)cyclohexane-carboxamide], in that order: 4.6 nM and not below 10000 nM.
In the same order, the values of `CN=S1(=O)CCN(c2ccc(-c3sc(-c4ccc(F)cc4)nc3[C@@H]3CCCC[C@H]3C(=O)NC3(C#N)CC3)cc2)CC1` [Example 160, (1R,2R)-N-(1-cyanocyclopropyl)-2-(2-(4-fluorophenyl)-5-(4-(1-(methylimino)-1-oxidothiomorpholino)phenyl)thiazol-4-yl)cyclohexane-carboxamide] are 1.6 nM and 3330 nM.
For `CC(C)(c1ccccc1)c1nc([C@@H]2CCCC[C@H]2C(=O)NC2(C#N)CC2)c(-c2ccc(N3CCS(=O)(=O)CC3)cc2)s1` [Example 161, (1R,2R)-N-(1-cyanocyclopropyl)-2-(5-(4-(1,1-dioxidothiomorpho-lino)phenyl)-2-(2-phenylpropan-2-yl)thiazol-4-yl)cyclohexane-carboxamide], the IC50 on human cathepsin K is 5.1 nM; on human cathepsin F it was 1000 nM.
On to `Cc1nc([C@@H]2CCCC[C@H]2C(=O)NCC#N)c(-c2ccc(N3CCS(=O)(=O)CC3)cc2)o1` [Example 164, (1R,2R)-N-(cyanomethyl)-2-(5-(4-(1,1-dioxidothiomorpho-lino)phenyl)-2-methyloxazol-4-yl)cyclohexane-carboxamide], for which the results for the IC50 on human cathepsin K and on human cathepsin F were 13.8 nM and not below 10000 nM, respectively.
Regarding `N#CC1(NC(=O)[C@@H]2CC(F)(F)CC[C@H]2c2nc(-c3ccc(F)cc3)oc2-c2ccc(N3CCS(=O)(=O)CC3)cc2)CC1` [Example 165, (1R,2R)-N-(1-cyanocyclopropyl)-2-(5-(4-(1,1-dioxidothiomorpho-lino)phenyl)-2-(4-fluorophenyl)oxazol-4-yl)-5,5-difluorocyclohexane-carboxamide], the IC50 at human cathepsin K was found to be 0.6 nM; at human cathepsin F it was 61 nM.
For `CC(C)(C)c1nc([C@@H]2CCC(F)(F)C[C@H]2C(=O)NC2(C#N)CC2)c(-c2ccc(N3CCS(=O)(=O)CC3)cc2)o1` [Example 166, (1R,2R)-2-(2-(tert-butyl)-5-(4-(1,1-dioxidothiomorpho-lino)phenyl)oxazol-4-yl)-N-(1-cyanocyclopropyl)-5,5-difluorocyclohexane-carboxamide], in that order: 0.7 nM and 356 nM.
Regarding `CC(C)(C)c1nc([C@@H]2CCCC[C@H]2C(=O)NC2(C#N)CC2)c(-c2ccc(N3CCS(=O)(=O)CC3)cc2)o1` [Example 167, (1R,2R)-2-(2-(tert-butyl)-5-(4-(1,1-dioxidothiomorpho-lino)phenyl)oxazol-4-yl)-N-(1-cyanocyclopropyl) cyclohexanecarbox-amide], the IC50 amounted to 2.4 nM at human cathepsin K and 5120 nM at human cathepsin F.
